This passage reports GI50 and Activity results from ChEMBL document CHEMBL1143025, “Synthesis of carbamate derivatives of iejimalides. Retention of normal antiproliferative activity and localization of binding in cancer cells” (2007).

Active and inactive are the calls of the source. The rule behind the calls is not given here.

The GI50 is the concentration at which growth is held to half of that of the control. Low readings indicate greater sensitivity of the cells, high ones lower sensitivity of the cells.

Assay [1] in a line: Antiproliferative activity against human MDA231 cells after 72 hrs by MTT assay. The class given is functional. Conditions: MDA-MB-231, 72 h.
Assay [2] deals with PC-3. Description: Antiproliferative activity against human PC3 cells after 72 hrs by MTT assay. Conditions: PC-3, 72 h. The assay is classed as functional.
Another assay relates to MCF7. Nature of the assay: Antiproliferative activity against human MCF7 cells after 72 hrs by MTT assay. The class given is functional. The settings on record: MCF7, 72 h. (In general: Formazan colour is commonly taken as a measure of viable cells.)
The test system of another assay is SK-BR-3. Nature of the assay: Antiproliferative activity against human SKBr3 cells after 72 hrs by MTT assay. The class given is functional. Conditions: SK-BR-3, 72 h.
Assay [3] deals with PC-3. Nature of the assay: Disruption of microtubules in human PC3 cells at 100 nM after 12 hrs. The assay is classed as functional, cell-based.

`CO[C@@H]1/C=C(C)/C=C/[C@@H](C)/C=C/C(=O)O[C@H](/C(C)=C/C=C(\C)CNC(=O)[C@H](COC(=O)Nc2ccccc2)NC=O)[C@@H](C)/C=C/C=C/[C@@H](OC)CC/C=C(C)\C=C\C1`: the GI50 in assay [1] is 12 nM; with PC-3 [2] it was 15.3 nM; in the assay on MCF7 it was 7.5 nM; in the assay on SK-BR-3, 20 nM.
For `CO[C@@H]1/C=C(C)/C=C/[C@@H](C)/C=C(\C)C(=O)O[C@H](/C(C)=C/C=C(\C)CNC(=O)[C@H](COC(=O)Nc2ccccc2)NC=O)[C@@H](C)/C=C/C=C/[C@@H](OC)CC/C=C(C)\C=C\C1`, in that order: 8.8 nM, 9.9 nM, 8.3 nM and 10.5 nM.
With `CC(=O)O[C@H]1C(=O)[C@@]2(C)[C@H]([C@H](OC(=O)c3ccccc3)[C@]3(O)C[C@H](OC(=O)[C@H](O)[C@@H](NC(=O)c4ccccc4)c4ccccc4)C(C)=C1C3(C)C)[C@]1(OC(C)=O)CO[C@@H]1C[C@@H]2O`, the outcome with PC-3 [3] was Active.
